# Test results published in patent US20200030236A1, “BIOPATCH, BIOHEATER, BIOSENSOR AND BIOELECTRONIC PATCH DEVICE” (SEOUL NATIONAL UNIVERSITY R&DB FOUNDATION, priority 2016, published 2020).
# Tested on: brain tumors
# Assay: Size change in brain tumor and survival rate in rats having brain tumors
# Assay type: in vivo
# Details: (a) drug injected by intravenous injection, rats (FIGS. 27, 28)
# Excerpt: FIGS. 27 to 29 show the result of comparing the size change in brain tumor and the survival rate according to four treatment methods applied to rats having brain tumors.
smiles,measurement,value
"COc1cccc2c1C(=O)c1c(O)c3c(c(O)c1C2=O)C[C@@](O)(C(=O)CO)C[C@@H]3O[C@H]1C[C@H](N)[C@H](O)[C@H](C)O1 [drug, doxorubicin]",size change in brain tumor,rapidly increases with time
